# From the supplement of paper PMC10307832
# Legend:
# Experiment in all cases: relative viability (nuclei count vs DMSO), 5 days (fraction); higher = more cells survive
# [1] = compound: Cn1cc(-c2cnn3c(N)c(Br)c([C@@H]4CCCNC4)nc23)cn1 + CS(=O)(=O)N1CCN(Cc2cc3nc(-c4cccc5[nH]ncc45)nc(N4CCOCC4)c3s2)CC1 [Pictilisib] (partner 1 µM)
# Summary of the method: (§1)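 Relative viability divides the nuclei count in treated wells by that in vehicle wells. Lung cancer cell lines were seeded in 1536-well plates, dosed by pin tool the next day, and fixed and stained after 5 days in one step with final 0.05% Triton X-100, 1% formaldehyde and 1 ug/ml Hoechst. Dosing was a single drug or a fixed anchor-drug dose plus five library-drug doses (not always all listed) in √10 steps, and values are medians of duplicate plates imaged at 4×.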
# [2] = compound: Cn1cc(-c2cnn3c(N)c(Br)c([C@@H]4CCCNC4)nc23)cn1 + Nc1ncn([C@H]2C[C@H](O)[C@@H](CO)O2)c(=O)n1 [Decitabine] (partner 2 µM)
# Summary of the method: as §1
# [3] = compound: Cn1cc(-c2cnn3c(N)c(Br)c([C@@H]4CCCNC4)nc23)cn1 + C[C@@H](Oc1cc(-c2cnn(C3CCNCC3)c2)cnc1N)c1c(Cl)ccc(F)c1Cl [Crizotinib] (partner 1 µM)
# Summary of the method: as §1
# [4] = compound: Cn1cc(-c2cnn3c(N)c(Br)c([C@@H]4CCCNC4)nc23)cn1 + Cc1nc(NC(=O)N2CCC[C@H]2C(N)=O)sc1-c1ccnc(C(C)(C)C(F)(F)F)c1 [Alpelisib] (partner 2 µM)
# Summary of the method: as §1
# [5] = compound: Cn1cc(-c2cnn3c(N)c(Br)c([C@@H]4CCCNC4)nc23)cn1 + N=C(N)NC(=N)NCCc1ccccc1 [Phenformin] (partner 250 µM)
# Summary of the method: as §1
# [6] = compound: Cn1cc(-c2cnn3c(N)c(Br)c([C@@H]4CCCNC4)nc23)cn1 + CS(=O)(=O)CCNCc1ccc(-c2ccc3ncnc(Nc4ccc(OCc5cccc(F)c5)c(Cl)c4)c3c2)o1 [Lapatinib] (partner 2 µM)
# Summary of the method: as §1
# [7] = compound: Cn1cc(-c2cnn3c(N)c(Br)c([C@@H]4CCCNC4)nc23)cn1 + O=C(c1cc(Cc2n[nH]c(=O)c3ccccc23)ccc1F)N1CCN(C(=O)C2CC2)CC1 [Olaparib] (partner 8 µM)
# Summary of the method: as §1
# [8] = compound: Cn1cc(-c2cnn3c(N)c(Br)c([C@@H]4CCCNC4)nc23)cn1 + CC1(C)CCC(c2ccc(Cl)cc2)=C(CN2CCN(c3ccc(C(=O)NS(=O)(=O)c4ccc(N[C@H](CCN5CCOCC5)CSc5ccccc5)c(S(=O)(=O)C(F)(F)F)c4)cc3)CC2)C1 [Navitoclax] (partner 0.5 µM)
# Summary of the method: as §1
# [9] = compound: Cn1cc(-c2cnn3c(N)c(Br)c([C@@H]4CCCNC4)nc23)cn1 + COc1cc2c(Oc3ccc(NC(=O)C4(C(=O)Nc5ccc(F)cc5)CC4)cc3F)ccnc2cc1OCCCN1CCOCC1 [Foretinib] (partner 0.25 µM)
# Summary of the method: as §1
# [10] = compound: Cn1cc(-c2cnn3c(N)c(Br)c([C@@H]4CCCNC4)nc23)cn1 + C[C@]1(O)C[C@@H](c2nc(-c3ccc4ccc(-c5ccccc5)nc4c3)c3c(N)nccn32)C1 [Linsitinib] (partner 1 µM)
# Summary of the method: as §1
# [11] = compound: Cn1cc(-c2cnn3c(N)c(Br)c([C@@H]4CCCNC4)nc23)cn1
# Summary of the method: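 Viability here means nuclei in treated wells divided by nuclei in vehicle wells, reported as the median across plates. Only plates with control CV below 25% and at least one doubling passed. Lung cancer cell lines in 1536-well plates were exposed to five √10-spaced library-drug doses for 5 days and counted from 4× Hoechst images in MetaXpress.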
# [12] = compound: Cn1cc(-c2cnn3c(N)c(Br)c([C@@H]4CCCNC4)nc23)cn1 + CC(C)C[C@H](NC(=O)[C@H](Cc1ccccc1)NC(=O)c1cnccn1)B(O)O [Bortezomib] (partner 0.002 µM)
# Summary of the method: as §1
cell line,measurement,setting,value
A549,relative viability,[1]; first compound 0.05 µM,0.503
same,relative viability,[1]; first compound 0.1581 µM,0.606
same,relative viability,[1]; first compound 0.5 µM,0.434
same,relative viability,[1]; first compound 1.581 µM,0.284
same,relative viability,[1]; first compound 5 µM,0.307
same,relative viability,[2]; first compound 0.05 µM,0.323
same,relative viability,[2]; first compound 0.1581 µM,0.281
same,relative viability,[2]; first compound 0.5 µM,0.279
same,relative viability,[2]; first compound 1.581 µM,0.278
same,relative viability,[2]; first compound 5 µM,0.116
same,relative viability,[3]; first compound 0.05 µM,0.783
same,relative viability,[3]; first compound 0.1581 µM,0.962
same,relative viability,[3]; first compound 0.5 µM,0.778
same,relative viability,[3]; first compound 1.581 µM,0.531
same,relative viability,[3]; first compound 5 µM,0.492
same,relative viability,[4]; first compound 0.05 µM,0.659
same,relative viability,[4]; first compound 0.1581 µM,0.822
same,relative viability,[4]; first compound 0.5 µM,0.653
same,relative viability,[4]; first compound 1.581 µM,0.752
same,relative viability,[4]; first compound 5 µM,0.495
same,relative viability,[5]; first compound 0.05 µM,0.158
same,relative viability,[5]; first compound 0.1581 µM,0.907
same,relative viability,[5]; first compound 0.5 µM,0.215
same,relative viability,[5]; first compound 1.581 µM,0.149
same,relative viability,[5]; first compound 5 µM,0.115
same,relative viability,[6]; first compound 0.05 µM,1.03
same,relative viability,[6]; first compound 0.1581 µM,1.11
same,relative viability,[6]; first compound 0.5 µM,0.909
same,relative viability,[6]; first compound 1.581 µM,0.795
same,relative viability,[6]; first compound 5 µM,0.643
same,relative viability,[7]; first compound 0.05 µM,0.483
same,relative viability,[7]; first compound 0.1581 µM,0.35
same,relative viability,[7]; first compound 0.5 µM,0.352
same,relative viability,[7]; first compound 1.581 µM,0.301
same,relative viability,[7]; first compound 5 µM,0.166
same,relative viability,[8]; first compound 0.05 µM,1.25
same,relative viability,[8]; first compound 0.1581 µM,1.3
same,relative viability,[8]; first compound 0.5 µM,1.14
same,relative viability,[8]; first compound 1.581 µM,0.916
same,relative viability,[8]; first compound 5 µM,0.917
same,relative viability,[9]; first compound 0.05 µM,1.03
same,relative viability,[9]; first compound 0.1581 µM,1.2
same,relative viability,[9]; first compound 0.5 µM,0.93
same,relative viability,[9]; first compound 1.581 µM,0.664
same,relative viability,[9]; first compound 5 µM,0.711
same,relative viability,[10]; first compound 0.05 µM,0.653
same,relative viability,[10]; first compound 0.1581 µM,0.664
same,relative viability,[10]; first compound 0.5 µM,0.48
same,relative viability,[10]; first compound 1.581 µM,0.588
same,relative viability,[10]; first compound 5 µM,0.43
same,relative viability,[11]; 0.05 µM,1.01
same,relative viability,[11]; 0.1581 µM,1.07
same,relative viability,[11]; 0.5 µM,0.946
same,relative viability,[11]; 1.581 µM,0.847
same,relative viability,[11]; 5 µM,0.813
EBC-1,relative viability,[1]; first compound 0.05 µM,0.466
same,relative viability,[1]; first compound 0.1581 µM,0.36
same,relative viability,[1]; first compound 0.5 µM,0.37
same,relative viability,[1]; first compound 1.581 µM,0.265
same,relative viability,[1]; first compound 5 µM,0.221
same,relative viability,[3]; first compound 0.05 µM,0.179
same,relative viability,[3]; first compound 0.1581 µM,0.179
same,relative viability,[3]; first compound 0.5 µM,0.186
same,relative viability,[3]; first compound 1.581 µM,0.174
same,relative viability,[3]; first compound 5 µM,0.17
same,relative viability,[4]; first compound 0.05 µM,0.902
same,relative viability,[4]; first compound 0.1581 µM,0.913
same,relative viability,[4]; first compound 0.5 µM,0.704
same,relative viability,[4]; first compound 1.581 µM,0.774
same,relative viability,[4]; first compound 5 µM,0.753
same,relative viability,[6]; first compound 0.05 µM,0.207
same,relative viability,[6]; first compound 0.1581 µM,0.183
same,relative viability,[6]; first compound 0.5 µM,0.24
same,relative viability,[6]; first compound 1.581 µM,0.223
same,relative viability,[6]; first compound 5 µM,0.192
same,relative viability,[12]; first compound 0.05 µM,0.609
same,relative viability,[12]; first compound 0.1581 µM,0.599
same,relative viability,[12]; first compound 0.5 µM,0.445
same,relative viability,[12]; first compound 1.581 µM,0.461
same,relative viability,[12]; first compound 5 µM,0.394
same,relative viability,[7]; first compound 0.05 µM,0.846
same,relative viability,[7]; first compound 0.1581 µM,0.854
same,relative viability,[7]; first compound 0.5 µM,0.726
same,relative viability,[7]; first compound 1.581 µM,0.75
same,relative viability,[7]; first compound 5 µM,0.616
same,relative viability,[8]; first compound 0.05 µM,0.39
same,relative viability,[8]; first compound 0.1581 µM,0.347
same,relative viability,[8]; first compound 0.5 µM,0.286
same,relative viability,[8]; first compound 1.581 µM,0.304
same,relative viability,[8]; first compound 5 µM,0.238
same,relative viability,[9]; first compound 0.05 µM,0.107
same,relative viability,[9]; first compound 0.1581 µM,0.0968
same,relative viability,[9]; first compound 0.5 µM,0.0834
same,relative viability,[9]; first compound 1.581 µM,0.0926
same,relative viability,[9]; first compound 5 µM,0.0939
same,relative viability,[10]; first compound 0.05 µM,0.937
same,relative viability,[10]; first compound 0.1581 µM,1.09
same,relative viability,[10]; first compound 0.5 µM,0.933
same,relative viability,[10]; first compound 1.581 µM,0.884
same,relative viability,[10]; first compound 5 µM,0.799
same,relative viability,[11]; 0.05 µM,1.12
same,relative viability,[11]; 0.1581 µM,1.16
same,relative viability,[11]; 0.5 µM,0.882
same,relative viability,[11]; 1.581 µM,0.822
same,relative viability,[11]; 5 µM,0.869
